Measurements: the NIST ThermoML archive (doi:10.1021/je060190e)
± gives the expanded uncertainty stated by the source.

Settings: 101.33 kPa, Liquid

CCCCn1cc[n+](C)c1.COS(=O)(=O)[O-] [1-butyl-3-methylimidazolium methyl sulfate]
Settings | mass density [kg/m3]
290.95 K | 1214.9 ± 2.2
292.95 K | 1213.5 ± 2.2
294.95 K | 1212.1 ± 2.2
297 K | 1210.7 ± 2.2
299 K | 1209.4 ± 2.2
301 K | 1208 ± 2.2
303 K | 1206.7 ± 2.2
305 K | 1205.3 ± 2.2
307.05 K | 1204 ± 2.2
